Key:
HPAC cells = experiment: Wound healing assay, HPAC cells; assay type: cell-based, human; details: approximate 24 hours
Method: The inhibitory effects on cell migration by LLL12B in pancreatic cancer cells was also examined. The human HPAC pancreatic cancer cells were seeded and allowed to attach for 24 hours. Then cells were treated with different concentrations of LLL12B for approximate 24 hours and the cell migration was determined by wound healing assay.

caspase-3/7 [1] = experiment: Caspase-3/7 activity assay, SUM159 cells; assay type: cell-based, human; details: SUM159, 5 hours, vs DMSO
Method: (§1) Caspase-3/7 activity assay. The Caspase-3/7 Fluorescence Assay Kit (Cayman, Ann Arbor, MI, USA) was used to detect the activation of caspase-3/7 and the assay was performed according to the manufacturer's instructions. Briefly, MDA-MB-231, SUM159, and 4T1 cells were seeded in a 96-well plate in triplicate. After overnight incubation, cells were treated with either LLL12B or DMSO for 5 hours. Cells were lysed and processed to measure caspase-3/7 activity and the fluorescence intensity was read (excitation=485 nm; emission=535 nm).

MDA-MB-231 cells [2] = experiment: Annexin V and PI flow cytometry, MDA-MB-231 cells; assay type: cell-based, human; details: MDA-MB-231, 8-12 hours, vs DMSO
Method: (§2) Flow cytometry analysis. Flow cytometry was performed to detect cell apoptosis. The APC Annexin V Apoptosis Detection Kit (Biolegend, San Diego, CA, USA) was used for Annexin V staining. Cells were seeded in a 35 mm culture dish at a density of 1×10^5 cells/dish. After overnight incubation, cells were treated with DMSO or LLL12B for 8-12 hours. Cells were harvested and stained with Annexin V-APC and propidium iodide (PI) according to the manufacturer's instructions. After staining, cells were counted using a FACSCanto II flow cytometer (BD Biosciences, San Jose, CA, USA).

SUM149 xenograft = SUM149 xenograft model in vivo
Description: Next, the efficacy of LLL12B and Talazoparib was examined in the SUM149 xenograft model in vivo. […] V: Vehicle; L: LLL12B; T: Talazoparib. Western blot analysis further confirmed the inhibition of p-STAT3 in LLL12B and combination treated tumors (FIG. 16D).

SUM159 cells = experiment: Colony formation assay, SUM159 cells; assay type: cell-based, human; details: SUM159, 24 hours treatment, 7 days drug-free, vs DMSO
Method: Colony formation assay. MDA-MB-231, SUM159, and 4T1 cells were seeded in a 6-well plate at a density of 1000 cells/well and treated with DMSO or LLL12B for 24 hours, and then cultured in a drug-free culture medium for 7 days. Colonies were fixed with methanol for 30 min and stained with 1% crystal violet in 25% methanol for 2 hours at room temperature.

MDA-MB-231 cells [3] = experiment: Wound healing assay, MDA-MB-231 cells; assay type: cell-based, human; details: MDA-MB-231, vs DMSO
Method: (§3) Wound healing assay. MDA-MB-231, SUM159, and 4T1 cells were seeded in a 6-well plate and cultured until fully confluent. A straight scratch crossing the monolayer was created using a 200 μl pipette tip and images of scratched areas were taken. Next, cells were treated with DMSO or LLL12B. Then, images were taken until the scratch of DMSO-treated cells was closed and the relative migration (%) was calculated.
Given the relevance between cancer cell migration and metastasis, cell migration was evaluated using wound healing assay following LLL12B and Talazoparib treatment.
In FIG. 12, L: LLL12B; T: Talazoparib; L0.5:0.5 μM LLL12B; L0.25:0.25 μM LLL12B; T0.5:0.5 μM Talazoparib; T10: 10 μM Talazoparib. In FIG. 13, L: LLL12B; T: Talazoparib; L0.5:0.5μ M LLL12B; T10: 10μ M Talazoparib; T20: 20μ M Talazoparib. In FIG. 14, L: LLL12B; T: Talazoparib; L0.5:0.5μ M LLL12B; T10: 10μ M Talazoparib; T20: 20μ M Talazoparib.
L: LLL12B; A: Abemaciclib; L0.5:0.5 μM LLL12B; A2.5:2.5 μM Abemaciclib; A1: 1 μM Abemaciclib

P-STAT3 (Y705) = experiment: Immunofluorescence staining of P-STAT3 (Y705) localization in SUM159 cells; assay type: cell-based, human; details: 8 hours, vs DMSO
Method: (A) The chemical structures of LLL12B and LLL12. The carbamate ester bond of LLL12B is hydrolytically cleaved by the tumor-associated plasmin to release LLL12. (B) SUM159 cells were seeded in a 6-well plate and treated with LLL12B for 8 hours. Cells were stained with Phospho-Stat3 (Tyr705) and DAPI (indicated by arrows). Green: P-STAT3 (Y705); Blue: DAPI. T47D (C) and MDA-MB-231 (D) breast cancer cells were pretreated with DMSO or LLL12B in a serum-free medium for 2 hours and stimulated with 50 ng/ml of IL-6, IFN-γ, or EGF for additional 30 minutes. Cells were collected and analyzed by Western blot. GAPDH served as a protein loading control.
Immunofluorescence staining. SUM159 cells were seeded in a 6-well plate and treated with LLL12B or DMSO for 8 hours. Cells were fixed with 4% paraformaldehyde (PFA) for 15 minutes at room temperature and then permeabilized with ice-cold 100% methanol for 10 minutes at −20° C. After blocking in 3% Bovine Serum Albumin (BSA)/0.1% Triton X-100, cells were incubated with rabbit anti-Phospho-Stat3 (Tyr705) (1:100, Cell Signaling Technology, Danvers, MA, USA) overnight at 4° C., then with secondary antibody for 1 hour at room temperature. Cells were photographed using a Leica fluorescence microscope (Leica Microsystems Inc, Deerfield, IL, USA).

[4] = refs [25,28]; cited from earlier work
4T1 cells [5] = experiment: Wound healing assay, 4T1 cells; assay type: cell-based, murine; details: 4T1, vs DMSO
Method: as §3

PANC-1 cells = experiment: MTT cell viability assay, PANC-1 cells; assay type: cell-based, human; details: PANC-1, 3 days
Method: The human pancreatic cancer cell lines HPAC and PANC-1 were seeded and allowed to attach for 24 hours. Then cells were treated with different concentrations of LLL12B for 3 days and the cell viability was determined by MTT cell viability assay.

ovarian cancer cells = details: ref [45]; cited from earlier work
4T1 cells [6] = experiment: Annexin V and PI flow cytometry, 4T1 cells; assay type: cell-based, murine; details: 4T1, 8-12 hours, vs DMSO
Method: as §2

caspase-3/7 [7] = experiment: Caspase-3/7 activity assay, 4T1 cells; assay type: cell-based, murine; details: 4T1, 5 hours, vs DMSO
Method: as §1

CN(C)C(=O)Oc1cccc2c1C(=O)c1cccc(S(N)(=O)=O)c1C2=O [LLL12B]
cell migration (HPAC cells): significantly inhibits
activation of caspase-3/7 (caspase-3/7 [1]): induced the activation
percentage of apoptotic cells (MDA-MB-231 cells [2]): significantly increased
p-STAT3 in tumors, Western blot (SUM149 xenograft): inhibition
colony numbers (SUM159 cells): significant reduction
wound closure (cell migration) (MDA-MB-231 cells [3]): effectively inhibited
distribution of P-STAT3 (Y705) in the nucleus (P-STAT3 (Y705)): blocked
in vivo pharmacokinetic properties compared to LLL12 [4]: superior
wound closure (cell migration) (4T1 cells [5]): effectively inhibited
cell viability (PANC-1 cells): significantly inhibits
sensitization to paclitaxel and cisplatin (ovarian cancer cells): sensitized
percentage of apoptotic cells (4T1 cells [6]): significantly increased
activation of caspase-3/7 (caspase-3/7 [7]): induced the activation
